According to PubChem BioAssay AID1963985 (Molecular Pharmacology Branch, DTP, NCI, 2024):

Tested on: 252836-082-R-J2-PDC tumor spheroids, viability
Experiment: Anticancer human tumor 252836-082-R-J2-PDC patient-derived head and neck squamous cell carcinoma cell line growth inhibition [PI3K]
Details: spheroids with HUVEC and MSC; for IC50: curve of first compound; for viability, T/C: stronger effect = lower value
Source text: Combinatorial screen of targeted agents with the PI3K inhibitors inavolisib, alpelisib, duvelisib, and copanlisib in multi-cell type tumor spheroids
A high-throughput screen of multi-cell type tumor spheroids was designed to identify active combinations of targeted small molecules and PI3K pathway inhibitors. Complex spheroids include a stromal component modeled by human endothelial cells (HUVEC) and fibroblasts modeled by human mesenchymal stem cells (MSCs). The concentration ranges selected for each drug and investigational agent were based upon clinically achievable concentrations if the clinical Cmax of the agent was known.
Compounds. The drugs and investigational agents: inavolisib (NSC800729), alpelisib (NSC765974), duvelisib (NSC772469), copanlisib (NSC816437), ipatasertib (NSC767898), afuresertib (NSC778305), talazoparib (NSC767125), sapanisertib (NSC764658), selumetinib (NSC741078), tovorafenib (DAY101, NSC766906), vemurafenib (NSC761431), ravoxertinib (NSC781343), sotorasib (NSC818433), MRTX1133 (NSC 836407), abemaciclib (NSC 768073), palbociclib (NSC758247), venetoclax (NSC 766270), SY5609 (NSC837396), enzalutamide (NSC755605), and darolutamide (NSC825331), were obtained from the National Cancer Institute (NCI) Developmental Therapeutics Program Chemical Repository. The FDA-approved anticancer drug set is available from the NCI Developmental Therapeutics Program. […] The stock solutions were prepared in dimethyl sulfoxide (DMSO, Sigma-Aldrich, St. Louis, MO, cat. D2650) at 800-fold the tested concentration and stored at -70 degrees C prior to their use. All drugs and investigational agents were tested over a range starting from a high concentration at or near the clinical Cmax and decreasing in half-log increments. If the clinical Cmax for an agent had not been determined, the highest concentration tested was 10 microM.
Cell Culture. All cells were maintained in an incubator at 37 degrees C and 5% CO2 with 95% humidity. The PDC lines were cultured according to standard operating procedures established by the NCI PDMR (https://pdmr.cancer.gov/sops/default.htm). All PDCs were thawed and cultured in Matrigel-coated flasks prepared with a working solution of 1X Ham's F-12 nutrient mix, without supplementation (Invitrogen, Waltham, MA, cat. 11765054), 100 U/mL penicillin-streptomycin (Invitrogen, cat. 15140122), and 2.5% Matrigel (Corning Inc., Corning, NY, cat. 354248) for the first three passages. The 354836-022-R-J1-PDC, 475296-252-R-J1-PDC, and 997726-040-R-J2-PDC lines were cultured in 6A media, which includes advanced DMEM/F-12 (Thermo Fisher Scientific, cat. 12634028), 10 mM HEPES (Thermo Fisher Scientific, cat. 15630080), 1X GlutaMAX supplement (Thermo Fisher Scientific, cat. 35050061), 0.1 mg/mL primocin (InvivoGen, San Diego, CA, cat. ant-pm-2), 10% defined fetal bovine serum, heat inactivated (HyClone Laboratories Inc., Logan, UT, cat. SH30070.03HI), 50% L-WRN conditioned media (ATCC, cat. CRL-3276), 1.25 mM N-Acetyl-L-cysteine (Sigma-Aldrich, cat. A9165), 10 mM nicotinamide (Sigma-Aldrich, cat. N0636), 1X B-27 supplement (Thermo Fisher Scientific, cat. 17504044), 1X N-2 supplement (Thermo Fisher Scientific, cat. 17502048), and 10 microM Y-27632 dihydrochloride (Tocris Bioscience, Bristol, United Kingdom, cat. 1254). The 624824-186-R-J2-PDC line was cultured in 6C/Colon 1B media, which includes all 6A media components plus 50 ng/mL human EGF recombinant protein (Thermo Fisher Scientific, cat. PHG0311). […]
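Note: spheroids exposed to agents for seven days before readout.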
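Throughout, for viability, T/C: percent of vehicle DMSO control viability so 100% = untreated growth.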

IC50 (second compound 0.00316 µM): > 100 nM | IC50 (second compound 0.01 µM): > 100 nM | IC50 (second compound 0.0316 µM): > 100 nM | IC50 (second compound 0.1 µM): > 100 nM | IC50 (second compound 0.316 µM): > 100 nM | IC50 (second compound 1 µM): < 0.316 nM
SMILES: CC(=O)c1c(C)c2cnc(Nc3ccc(N4CCNCC4)cn3)nc2n(C2CCCC2)c1=O + CC(Nc1ccc2c(c1)OCCn1cc(N3C(=O)OCC3C(F)F)nc1-2)C(N)=O
viability, T/C (second compound 0.00316 µM, first compound 0.000316 µM): 102% | viability, T/C (second compound 0.00316 µM, first compound 0.001 µM): 91.6% | viability, T/C (second compound 0.00316 µM, first compound 0.00316 µM): 94.5% | viability, T/C (second compound 0.00316 µM, first compound 0.01 µM): 89.8% | viability, T/C (second compound 0.00316 µM, first compound 0.0316 µM): 98.2% | viability, T/C (second compound 0.00316 µM, first compound 0.1 µM): 105% | viability, T/C (second compound 0.01 µM, first compound 0.000316 µM): 97.1% | viability, T/C (second compound 0.01 µM, first compound 0.001 µM): 84.9% | viability, T/C (second compound 0.01 µM, first compound 0.00316 µM): 93.7% | viability, T/C (second compound 0.01 µM, first compound 0.01 µM): 89.2% | viability, T/C (second compound 0.01 µM, first compound 0.0316 µM): 83.9% | viability, T/C (second compound 0.01 µM, first compound 0.1 µM): 87.9% | viability, T/C (second compound 0.0316 µM, first compound 0.000316 µM): 90.8% | viability, T/C (second compound 0.0316 µM, first compound 0.001 µM): 76.1% | viability, T/C (second compound 0.0316 µM, first compound 0.00316 µM): 74.1% | viability, T/C (second compound 0.0316 µM, first compound 0.01 µM): 70.7% | viability, T/C (second compound 0.0316 µM, first compound 0.0316 µM): 81.4% | viability, T/C (second compound 0.0316 µM, first compound 0.1 µM): 82.4% | viability, T/C (second compound 0.1 µM, first compound 0.000316 µM): 68.8% | viability, T/C (second compound 0.1 µM, first compound 0.001 µM): 68.9% | viability, T/C (second compound 0.1 µM, first compound 0.00316 µM): 69.8% | viability, T/C (second compound 0.1 µM, first compound 0.01 µM): 70.8% | viability, T/C (second compound 0.1 µM, first compound 0.0316 µM): 66.5% | viability, T/C (second compound 0.1 µM, first compound 0.1 µM): 67.5% | viability, T/C (second compound 0.316 µM, first compound 0.000316 µM): 54.9% | viability, T/C (second compound 0.316 µM, first compound 0.001 µM): 53.6% | viability, T/C (second compound 0.316 µM, first compound 0.00316 µM): 65.1% | viability, T/C (second compound 0.316 µM, first compound 0.01 µM): 50.7% | viability, T/C (second compound 0.316 µM, first compound 0.0316 µM): 62.2% | viability, T/C (second compound 0.316 µM, first compound 0.1 µM): 55.7% | viability, T/C (second compound 1 µM, first compound 0.000316 µM): 47.5% | viability, T/C (second compound 1 µM, first compound 0.001 µM): 45.6% | viability, T/C (second compound 1 µM, first compound 0.00316 µM): 41.9% | viability, T/C (second compound 1 µM, first compound 0.01 µM): 42.4% | viability, T/C (second compound 1 µM, first compound 0.0316 µM): 44.9% | viability, T/C (second compound 1 µM, first compound 0.1 µM): 45.1%
